Consider 9 compounds from patent publication US20230013823A1, “INHIBITORS OF HUMAN IMMUNODEFICIENCY VIRUS REPLICATION” (VIV HEALTHCARE UK (No. 5) LIMITED, priority 2019, published 2023).

Series [1] can be described thus: Compound cytotoxicity, XTT-based colorimetric assay. The conditions noted are these: human; uninfected MT2 cells, day 4, XTT. Format: cell-based. How it is done: Compound cytotoxicity and the corresponding CC50 values were determined using the same protocol as described in the antiviral assay except that uninfected cells were used. Cytotoxicity was assessed on day 4 in uninfected MT2 cells by using an XTT (2,3-bis[2-Methoxy-4-nitro-5-sulfophenyl]-2H-tetrazolium-5-carboxyanilide inner salt)-based colorimetric assay (Sigma-Aldrich, St Louis, Mo.).
Background: Tetrazolium assays rely on reduction of a dye to a coloured formazan, in cell work by metabolically active cells.

Series [2] deals with recombinant NL4-3 virus (Renilla luciferase in nef). Description: HIV cell culture assay (antiviral activity, luciferase readout in MT-2 cells). It is filed as cell-based. The conditions noted are these: Renilla, NL43. How it is done:
HIV cell culture assay—MT=2 cells, 293T cells and the proviral DNA clone of NL4-3 virus were obtained from the NIH AIDS Research and Reference Reagent Program. MT=2 cells were propagated in RPMI 1640 media supplemented with 10% heat inactivated fetal bovine serum (FBS), […] penicillin G and up to 100 units/mL streptomycin. The 293T cells were propagated in DMEM media supplemented with 10% heat inactivated FBS, […] penicillin G and […] streptomycin. A recombinant NL4-3 proviral clone, in which a section of the nef gene was replaced with the Renilla luciferase gene, was used to make the reference virus used in these studies. The recombinant virus was prepared through transfection of the recombinant NL4-3 proviral clone into 293T cells using Transit-293 Transfection Reagent from Mirus Bio LLC (Madison, Wis.). Supernatent was harvested after 2-3 days and the amount of virus present was titered in MT=2 cells using luciferase enzyme activity as a marker by measuring luciferase enzyme activity. Luciferase was quantitated using the EnduRen Live Cell Substrate from Promega (Madison, Wis.). Antiviral activities of compounds toward the recombinant virus were quantified by measuring luciferase activity in MT=2 cells infected for 4-5 days with the recombinant virus in the presence of serial dilutions of the compound.
The 50% effective concentration (EC50) was calculated by using the exponential form of the median effect equation where (Fa)=1/[1+(ED50/drug conc.)m] (Johnson V A, Byington R T. Infectivity Assay. In Techniques in HIV Research. ed. Aldovini A, Walker B D. 71-76. New York: Stockton Press. 1990). The 50% inhibitory concentration (EC50) was calculated by using the exponential form of the median effect equation where percent inhibition=1/[1+(EC50/drug concentration)m], where m is a parameter that reflects the slope of the concentration-response curve.

The structures appear in SMILES notation. Some results are limits rather than exact numbers.

What is called CC50 is the concentration giving 50% cytotoxicity. Usually EC50 stands for the midpoint of the concentration-response curve. Take `Cn1nc(NS(C)(=O)=O)c2c(Cl)ccc(-n3c([C@H](Cc4cc(F)cc(F)c4)NC(=O)Cn4nc(C(F)F)c5c4C(F)(F)[C@@H]4C[C@H]54)nc4cc(-c5ccn(CC(C)(C)C)n5)ccc4c3=O)c21` (atropisomer, axis not shown; (P)) [Example 29, N—((S)-1-((3P)-3-(4-chloro-1-methyl-3-(methylsulfonamido)-1H-indazol-7-yl)-7-(1-neopentyl-1H-pyrazol-3-yl)-4-oxo-3,4-dihydroquinazolin-2-yl)-2-(3,5-difluorophenyl)ethyl)-2-((3bS,4aR)-3-(difluoromethyl)-5,5-difluoro-3b,4,4a,5-tetrahydro-1H-cyclopropa[3,4]cyclopenta[1,2-c]pyrazol-1-yl)acetamide]: the CC50 at 4 days in series [1] was over 500 nM. Besides, the EC50 in series [2] is 0.21 nM.

Take `Cn1nc(NS(C)(=O)=O)c2c(Cl)ccc(-n3c([C@H](Cc4cc(F)cc(F)c4)NC(=O)Cn4nc(C(F)F)c5c4C(F)(F)[C@@H]4C[C@H]54)nc4cc(-c5ccc(F)c(C(F)(F)F)n5)ccc4c3=O)c21` (atropisomer, axis not shown; (P)) [Example 30, N—((S)-1-((3P)-3-(4-chloro-1-methyl-3-(methylsulfonamido)-1H-indazol-7-yl)-7-(5-fluoro-6-(trifluoromethyl)pyridin-2-yl)-4-oxo-3,4-dihydroquinazolin-2-yl)-2-(3,5-difluorophenyl)ethyl)-2-((3bS,4aR)-3-(difluoromethyl)-5,5-difluoro-3b,4,4a,5-tetrahydro-1H-cyclopropa[3,4]cyclopenta[1,2-c]pyrazol-1-yl)acetamide]: the CC50 at 4 days in series [1] was over 500 nM. Further, the EC50 in series [2] worked out at 0.22 nM.

For the compound `Cn1nc(NS(C)(=O)=O)c2c(Cl)ccc(-n3c([C@H](Cc4cc(F)cc(F)c4)NC(=O)Cn4nc(C(F)F)c5c4C(F)(F)[C@@H]4C[C@H]54)nc4cc(-c5cccc(C(C)(F)F)n5)ccc4c3=O)c21` (atropisomer, axis not shown; (P)) [Example 28, N—((S)-1-((3P)-3-(4-chloro-1-methyl-3-(methylsulfonamido)-1H-indazol-7-yl)-7-(6-(1,1-difluoroethyl)pyridin-2-yl)-4-oxo-3,4-dihydroquinazolin-2-yl)-2-(3,5-difluorophenyl)ethyl)-2-((3bS,4aR)-3-(difluoromethyl)-5,5-difluoro-3b,4,4a,5-tetrahydro-1H-cyclopropa[3,4]cyclopenta[1,2-c]pyrazol-1-yl)acetamide], in series [1], the CC50 at 4 days is over 100 nM. Besides, the EC50 in series [2] was found to be 0.12 nM.

In turn, `Cn1nc(NS(C)(=O)=O)c2c(Cl)ccc(-n3c([C@H](Cc4cc(F)cc(F)c4)NC(=O)Cn4nc(C(F)F)c5c4C(F)(F)[C@@H]4C[C@H]54)nc4cc(-c5ncc(F)cn5)ccc4c3=O)c21` (atropisomer, axis not shown; (P)) [Example 24, N—((S)-1-((3P)-3-(4-chloro-1-methyl-3-(methylsulfonamido)-1H-indazol-7-yl)-7-(5-fluoropyrimidin-2-yl)-4-oxo-3,4-dihydroquinazolin-2-yl)-2-(3,5-difluorophenyl)ethyl)-2-((3bS,4aR)-3-(difluoromethyl)-5,5-difluoro-3b,4,4a,5-tetrahydro-1H-cyclopropa[3,4]cyclopenta[1,2-c]pyrazol-1-yl)acetamide] gave a CC50 at 4 days in series [1] of over 100 nM. Moreover, the EC50 in series [2] was found to be 0.045 nM.

On to `Cn1nc(NS(C)(=O)=O)c2c(Cl)ccc(-n3c([C@H](Cc4cc(F)cc(F)c4)NC(=O)Cn4nc(C(F)F)c5c4C(F)(F)[C@@H]4C[C@H]54)nc4cc(-c5ncc(F)cc5F)ccc4c3=O)c21` (atropisomer, axis not shown; (P)) [Example 7, N—((S)-1-((3P)-3-(4-chloro-1-methyl-3-(methylsulfonamido)-1H-indazol-7-yl)-7-(3,5-difluoropyridin-2-yl)-4-oxo-3,4-dihydroquinazolin-2-yl)-2-(3,5-difluorophenyl)ethyl)-2-((3bS,4aR)-3-(difluoromethyl)-5,5-difluoro-3b,4,4a,5-tetrahydro-1H-cyclopropa[3,4]cyclopenta[1,2-c]pyrazol-1-yl)acetamide], for which, in series [1], the CC50 at 4 days is over 500 nM. In addition, the EC50 in series [2] was 0.17 nM.

In turn, `Cn1nc(NS(C)(=O)=O)c2c(Cl)ccc(-n3c([C@H](Cc4cc(F)cc(F)c4)NC(=O)Cn4nc(C(F)F)c5c4C(F)(F)[C@@H]4C[C@H]54)nc4cc(-c5ccn(CC(F)(F)C(F)F)n5)ccc4c3=O)c21` (atropisomer, axis not shown; (P)) [Example 47, N—((S)-1-((3P)-3-(4-chloro-1-methyl-3-(methylsulfonamido)-1H-indazol-7-yl)-4-oxo-7-(1-(2,2,3,3-tetrafluoropropyl)-1H-pyrazol-3-yl)-3,4-dihydroquinazolin-2-yl)-2-(3,5-difluorophenyl)ethyl)-2-((3bS,4aR)-3-(difluoromethyl)-5,5-difluoro-3b,4,4a,5-tetrahydro-1H-cyclopropa[3,4]cyclopenta[1,2-c]pyrazol-1-yl)acetamide] returned a CC50 at 4 days in series [1] of over 100 nM. Moreover, in series [2], the EC50 was 0.07 nM.

As to `CC(F)(F)Cn1ccc(-c2ccc3c(=O)n(-c4ccc(Cl)c5c(NS(C)(=O)=O)nn(CC(F)F)c45)c([C@H](Cc4cc(F)cc(F)c4)NC(=O)Cn4nc(C(F)F)c5c4C(F)(F)[C@@H]4C[C@H]54)nc3c2)n1` (atropisomer, axis not shown; (P)) [Example 64, N—((S)-1-((3P)-3-(4-chloro-1-(2,2-difluoroethyl)-3-(methylsulfonamido)-1H-indazol-7-yl)-7-(1-(2,2-difluoropropyl)-1H-pyrazol-3-yl)-4-oxo-3,4-dihydroquinazolin-2-yl)-2-(3,5-difluorophenyl)ethyl)-2-((3bS,4aR)-3-(difluoromethyl)-5,5-difluoro-3b,4,4a,5-tetrahydro-1H-cyclopropa[3,4]cyclopenta[1,2-c]pyrazol-1-yl)acetamide], the CC50 at 4 days in series [1] is over 100 nM. For the same compound, the EC50 in series [2] was found to be 0.087 nM.

For `Cc1cc(-c2ccc3c(=O)n(-c4ccc(Cl)c5c(NS(C)(=O)=O)nn(C)c45)c([C@H](Cc4cc(F)cc(F)c4)NC(=O)Cn4nc(C(F)F)c5c4C(F)(F)[C@@H]4C[C@H]54)nc3c2)nn1CC(F)(F)C(F)F` (atropisomer, axis not shown; (P)) [Example 57, N—((S)-1-((3P)-3-(4-chloro-1-methyl-3-(methylsulfonamido)-1H-indazol-7-yl)-7-(5-methyl-1-(2,2,3,3-tetrafluoropropyl)-1H-pyrazol-3-yl)-4-oxo-3,4-dihydroquinazolin-2-yl)-2-(3,5-difluorophenyl)ethyl)-2-((3bS,4aR)-3-(difluoromethyl)-5,5-difluoro-3b,4,4a,5-tetrahydro-1H-cyclopropa[3,4]cyclopenta[1,2-c]pyrazol-1-yl)acetamide], the CC50 at 4 days in series [1] was over 100 nM. Moreover, the EC50 in series [2] amounted to 0.13 nM.

As to `C[C@H](C(=O)N[C@@H](Cc1cc(F)cc(F)c1)c1nc2cc(-c3ccn(CC(C)(F)F)n3)ccc2c(=O)n1-c1ccc(Cl)c2c(NS(C)(=O)=O)nn(C)c12)n1ccc(C2CC2)n1` (atropisomer, axis not shown; (P)) [Example 65, (R)—N—((S)-1-((3P)-3-(4-chloro-1-methyl-3-(methylsulfonamido)-1H-indazol-7-yl)-7-(1-(2,2-difluoropropyl)-1H-pyrazol-3-yl)-4-oxo-3,4-dihydroquinazolin-2-yl)-2-(3,5-difluorophenyl)ethyl)-2-(3-cyclopropyl-1H-pyrazol-1-yl)propanamide], in series [1], the CC50 at 4 days was over 100 nM. In addition, the EC50 in series [2] came to 0.17 nM.
